From ChEMBL document CHEMBL1201862, “PubChem BioAssay data set” (2004)
Calls of active or inactive are those of the source.

Columns and labels:
[1] = control 3'UTR Renilla luciferase suppression, dose response, counter-screen for Shn3 inhibitor project, cell-based, Clone20-Shn3RL, cherry-picked (AID 624133); format: functional
[2] = molecular target: T1, RNA-binding protein pos-1 (Caenorhabditis elegans, UniProt G5EF15); test: inhibitors of POS-1/mex-3 RNA binding, dose response, biochemical, fluorescence polarization (AID 1964);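 note: purified POS-1 fused to maltose binding protein made in E. coli; potency of compounds blocking POS-1 binding to fluorescent RNA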
T1 sequence (G5EF15 whole entry): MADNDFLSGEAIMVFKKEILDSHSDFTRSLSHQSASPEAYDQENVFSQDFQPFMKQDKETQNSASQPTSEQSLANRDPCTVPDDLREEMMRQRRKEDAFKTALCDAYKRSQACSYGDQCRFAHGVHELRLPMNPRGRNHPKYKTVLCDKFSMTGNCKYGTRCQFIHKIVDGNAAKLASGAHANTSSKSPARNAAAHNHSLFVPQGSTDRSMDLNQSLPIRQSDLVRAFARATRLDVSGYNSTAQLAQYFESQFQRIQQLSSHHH

[3] = Shn3 3'UTR reporter inhibitors, dose response, cell-based, Clone20 osteoblasts, firefly luciferase, cherry-picked (AID 624132); format: functional;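 note: firefly luciferase luminescence from reporter carrying the Shn3 3'UTR in osteoblasts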
Albumin = Albumin (Bos taurus, UniProt P02769); test: Counterscreen for inhibitors of T-cell receptor (TCR)-CD3 interaction: Fluorescence-based biochemical high throughput dose response assay to identify inhibitors of T-cell receptor (TCR)-CD3 interaction using a TAMRA-labeled BSA probe.; format: functional
Sequence of Albumin (P02769 whole entry): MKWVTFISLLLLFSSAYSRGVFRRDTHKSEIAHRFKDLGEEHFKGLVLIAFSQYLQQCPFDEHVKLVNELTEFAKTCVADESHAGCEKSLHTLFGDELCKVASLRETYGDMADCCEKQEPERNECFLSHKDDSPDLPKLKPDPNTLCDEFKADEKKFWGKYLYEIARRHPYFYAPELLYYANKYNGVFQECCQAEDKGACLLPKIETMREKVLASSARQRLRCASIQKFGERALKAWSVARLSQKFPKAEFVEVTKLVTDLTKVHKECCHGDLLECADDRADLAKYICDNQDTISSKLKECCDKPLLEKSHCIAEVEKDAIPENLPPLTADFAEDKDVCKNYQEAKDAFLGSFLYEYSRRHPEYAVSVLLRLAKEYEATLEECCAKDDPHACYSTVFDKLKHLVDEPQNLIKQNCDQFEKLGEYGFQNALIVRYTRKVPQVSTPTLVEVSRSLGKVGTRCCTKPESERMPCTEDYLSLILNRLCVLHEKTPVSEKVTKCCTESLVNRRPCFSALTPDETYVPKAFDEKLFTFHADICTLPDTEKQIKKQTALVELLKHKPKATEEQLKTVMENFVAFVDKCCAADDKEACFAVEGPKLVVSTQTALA

[4] = HepG2 cell cytotoxicity, dose response, cytotoxicity control for Shn3 inhibitor project, CellTiter-Glo, cherry-picked (AID 624134); format: functional, cell-based
cells [5] = format: functional, cell-based
Caspase-6 = molecular target: T2, Caspase-6 (Homo sapiens, UniProt P55212); test: human caspase-6 inhibitors, dose response, biochemical, VEID-R110 fluorescence, cherry-pick (AID 720632)
T2 sequence (P55212 whole entry): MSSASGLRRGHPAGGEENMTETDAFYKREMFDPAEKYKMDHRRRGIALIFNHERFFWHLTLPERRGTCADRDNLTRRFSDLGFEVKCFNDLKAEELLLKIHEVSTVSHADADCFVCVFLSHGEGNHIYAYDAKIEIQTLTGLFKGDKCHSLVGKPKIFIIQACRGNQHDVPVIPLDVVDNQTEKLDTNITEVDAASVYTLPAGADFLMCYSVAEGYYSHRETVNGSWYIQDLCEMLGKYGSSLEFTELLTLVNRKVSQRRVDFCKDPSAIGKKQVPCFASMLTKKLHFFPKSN

[6] = molecular target: FAD-linked sulfhydryl oxidase ALR (Homo sapiens, UniProt P55789); test: inhibitors of human ALR sulfhydryl oxidase, dose response, biochemical, H2O2 detection, luminescence, cherry-pick (AID 493248)
Sequence of FAD-linked sulfhydryl oxidase ALR (P55789 whole entry): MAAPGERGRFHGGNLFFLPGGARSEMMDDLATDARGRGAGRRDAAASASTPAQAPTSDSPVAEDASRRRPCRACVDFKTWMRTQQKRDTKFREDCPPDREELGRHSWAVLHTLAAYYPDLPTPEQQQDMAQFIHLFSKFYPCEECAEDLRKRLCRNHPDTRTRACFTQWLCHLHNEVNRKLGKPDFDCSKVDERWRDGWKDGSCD

cells [7] = format: functional, cell-based; remark: listed apart in the source
[8] = molecular target: T3, Zinc finger protein mex-5 (Caenorhabditis elegans, UniProt Q9XUB2); test: MEX-5/TCR-2 RNA interaction inhibitors, dose response, biochemical, C. elegans, fluorescence polarization (AID 1960)
T3 sequence (Q9XUB2 whole entry): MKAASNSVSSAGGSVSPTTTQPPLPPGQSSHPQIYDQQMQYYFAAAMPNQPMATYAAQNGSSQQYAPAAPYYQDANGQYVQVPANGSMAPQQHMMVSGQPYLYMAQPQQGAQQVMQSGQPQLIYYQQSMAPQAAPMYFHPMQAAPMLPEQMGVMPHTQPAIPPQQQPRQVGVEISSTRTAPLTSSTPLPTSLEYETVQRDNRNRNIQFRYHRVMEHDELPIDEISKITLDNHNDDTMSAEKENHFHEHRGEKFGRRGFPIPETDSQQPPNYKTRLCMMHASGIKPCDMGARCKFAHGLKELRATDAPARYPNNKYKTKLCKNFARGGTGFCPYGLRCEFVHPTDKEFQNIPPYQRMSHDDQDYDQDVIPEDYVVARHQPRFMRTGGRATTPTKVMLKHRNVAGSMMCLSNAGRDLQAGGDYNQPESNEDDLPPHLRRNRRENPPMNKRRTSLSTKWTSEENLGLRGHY

[9] = molecular target: T4, Histone-lysine N-methyltransferase NSD2 (Homo sapiens, UniProt O96028); format: biochemical
T4 sequence (O96028 whole entry): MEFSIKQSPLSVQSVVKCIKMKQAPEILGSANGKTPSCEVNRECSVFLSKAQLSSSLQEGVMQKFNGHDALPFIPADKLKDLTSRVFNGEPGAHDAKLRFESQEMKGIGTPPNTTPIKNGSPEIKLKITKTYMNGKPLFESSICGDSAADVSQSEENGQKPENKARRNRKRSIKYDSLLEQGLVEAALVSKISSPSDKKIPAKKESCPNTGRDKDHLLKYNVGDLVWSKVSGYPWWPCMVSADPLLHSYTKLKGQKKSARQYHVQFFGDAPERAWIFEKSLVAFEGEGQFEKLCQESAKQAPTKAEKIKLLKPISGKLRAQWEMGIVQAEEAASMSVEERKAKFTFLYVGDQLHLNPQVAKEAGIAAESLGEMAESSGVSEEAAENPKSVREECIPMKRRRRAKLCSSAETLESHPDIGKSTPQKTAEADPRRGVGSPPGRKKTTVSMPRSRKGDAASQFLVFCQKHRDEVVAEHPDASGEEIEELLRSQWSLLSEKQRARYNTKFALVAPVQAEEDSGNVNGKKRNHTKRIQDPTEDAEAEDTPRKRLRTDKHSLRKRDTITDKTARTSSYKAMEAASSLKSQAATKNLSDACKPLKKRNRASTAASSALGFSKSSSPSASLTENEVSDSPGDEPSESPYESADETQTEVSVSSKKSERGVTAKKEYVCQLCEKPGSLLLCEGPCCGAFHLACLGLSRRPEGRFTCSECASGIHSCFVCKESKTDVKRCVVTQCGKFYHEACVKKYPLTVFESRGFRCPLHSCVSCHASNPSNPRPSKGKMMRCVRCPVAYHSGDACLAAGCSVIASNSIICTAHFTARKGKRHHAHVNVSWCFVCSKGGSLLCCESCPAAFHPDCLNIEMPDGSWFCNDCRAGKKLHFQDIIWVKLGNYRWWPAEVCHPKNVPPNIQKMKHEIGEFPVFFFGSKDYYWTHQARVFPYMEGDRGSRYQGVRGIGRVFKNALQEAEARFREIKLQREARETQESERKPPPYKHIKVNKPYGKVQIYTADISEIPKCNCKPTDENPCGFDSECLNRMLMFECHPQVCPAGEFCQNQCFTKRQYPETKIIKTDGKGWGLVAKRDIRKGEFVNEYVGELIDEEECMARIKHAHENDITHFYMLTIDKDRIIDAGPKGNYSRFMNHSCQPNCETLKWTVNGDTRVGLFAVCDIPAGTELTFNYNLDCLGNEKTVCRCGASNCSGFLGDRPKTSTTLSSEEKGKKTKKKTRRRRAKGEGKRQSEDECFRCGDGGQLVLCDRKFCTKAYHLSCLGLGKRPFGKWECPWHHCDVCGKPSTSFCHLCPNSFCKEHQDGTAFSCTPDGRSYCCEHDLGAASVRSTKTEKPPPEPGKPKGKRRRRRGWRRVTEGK

HEK293 = test: HEK293T cell cytotoxicity, dose response, cytotoxicity control, ATP luminescence, cherry-pick samples (AID 687005); format: functional, cell-based; conditions: Homo sapiens;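 note: cells exposed to compound for 48 hours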
HeLa = test: HeLa cell cytotoxicity, dose response, cytotoxicity control, ATP luminescence, cherry-pick samples (AID 687004); format: functional, cell-based; conditions: Homo sapiens
[10] = HEK293 Cytotoxicity Assay Measured in Cell-Based System Using Plate Reader - 7071-01_Inhibitor_Dose_CherryPick_Activity_Set2.; format: functional
Protein Wnt-3a = Protein Wnt-3a (Mus musculus, UniProt P27467); test: SAR analysis of small molecule antagonists of Gli-SUFU in a Wnt3a luminescent reporter assay.; format: functional
Sequence of Protein Wnt-3a (P27467 whole entry): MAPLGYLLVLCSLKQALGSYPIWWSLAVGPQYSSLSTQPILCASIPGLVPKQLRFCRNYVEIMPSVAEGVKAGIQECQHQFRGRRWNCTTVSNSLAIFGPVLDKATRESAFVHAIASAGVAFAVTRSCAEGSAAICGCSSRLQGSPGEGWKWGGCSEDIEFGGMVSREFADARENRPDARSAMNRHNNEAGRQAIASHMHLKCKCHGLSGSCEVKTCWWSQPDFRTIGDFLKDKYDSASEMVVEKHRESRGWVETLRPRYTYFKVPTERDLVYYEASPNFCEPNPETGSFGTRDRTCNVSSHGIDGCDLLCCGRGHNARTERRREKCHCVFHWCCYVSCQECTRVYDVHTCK

[11] = human group III sPLA2 inhibitors, dose response, biochemical, QFRET, IC50 (AID 743457);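 note: green fluorescence rise as the enzyme cleaves BODIPY PC-A2 in liposomes; potency for inhibition of the enzyme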

For `Cc1ccc2nc(-c3ccc(O)c(O)c3)cn2c1`, the AC50 [1] was 2.47 µM (active), the EC50 [2] was > 75 µM (not active) and the AC50 [3] was 4.2 µM (active). The IC50 (Albumin) was > 94.1 µM (inactive), the AC50 [4] was > 70 µM (inactive) and the EC50 (cells [5]) was 5.03 µM (active). The AC50 (Caspase-6) was 12 µM (active), the AC50 [6] was 0.885 µM (active) and the EC50 (cells [7]) was > 350 µM (not active). The EC50 [8] was 9.7 µM (active) and the AC50 [9] was > 20 µM (inactive).
With `C[C@H]1CCCCO[C@H](CN(C)C(=O)Nc2ccc(F)cc2)[C@@H](C)CN([C@@H](C)CO)C(=O)c2cc(NS(=O)(=O)c3ccc(Cl)cc3)ccc2O1` the AC50 (HEK293) was 30.6 µM (active), the AC50 (HeLa) was 25.5 µM (active) and the AC50 [10] was 30.6 µM (active).
With `CCCCNc1cc(NC(=O)c2ccccc2)ncn1` the IC50 (Protein Wnt-3a) was > 21.8 µM (inactive).
With `CCc1c(-c2nnc(S)n2Cc2ccccc2)csc1C` the IC50 [11] was > 122 µM (inactive).
